In PubChem BioAssay (NCI):
Values joined by “and” are separate entries in the source; they are usually repeats but may differ in a detail not shown here. Equal values may be shown once.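 Tested at 5 concentrations; 48 h exposure; 96-well plates; endpoints linearly interpolated, else capped at highest concentration. Here, GI50 denotes the concentration required for 50% inhibition of growth. The concentration for full growth arrest is given as TGI.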

Assays:
Test in all cases: DTP human tumour cell line panel, 48 h
A549 NSCLC = tested on: A549 NSCLC
DU-145 prostate = tested on: DU-145 prostate
MDA-N = tested on: MDA-N
CCRF-CEM leukemia = tested on: CCRF-CEM leukemia
SR leukemia = tested on: SR leukemia
SF-295 CNS = tested on: SF-295 CNS
ACHN renal = tested on: ACHN renal
HCT-15 colon = tested on: HCT-15 colon
LOX IMVI melanoma = tested on: LOX IMVI melanoma
HCC-2998 colon = tested on: HCC-2998 colon
UACC-257 melanoma = tested on: UACC-257 melanoma
HT29 colon = tested on: HT29 colon
SNB-75 CNS = tested on: SNB-75 CNS
SW-620 colon = tested on: SW-620 colon
RXF 393 renal = tested on: RXF 393 renal
OVCAR-8 ovarian = tested on: OVCAR-8 ovarian
HL-60(TB) leukemia = tested on: HL-60(TB) leukemia
SK-MEL-2 melanoma = tested on: SK-MEL-2 melanoma
UO-31 renal = tested on: UO-31 renal
MDA-MB-435 = tested on: MDA-MB-435
SK-MEL-28 melanoma = tested on: SK-MEL-28 melanoma
MCF7 breast = tested on: MCF7 breast
NCI-H23 lung = tested on: NCI-H23 lung
M14 melanoma = tested on: M14 melanoma
OVCAR-5 ovarian = tested on: OVCAR-5 ovarian
CAKI-1 renal = tested on: CAKI-1 renal
PC-3 prostate = tested on: PC-3 prostate
MDA-MB-231 breast = tested on: MDA-MB-231 breast
SF-268 CNS = tested on: SF-268 CNS
K-562 leukemia = tested on: K-562 leukemia
MALME-3M melanoma = tested on: MALME-3M melanoma
KM12 colon = tested on: KM12 colon
TK-10 renal = tested on: TK-10 renal
UACC-62 melanoma = tested on: UACC-62 melanoma
NCI/ADR-RES ovarian = tested on: NCI/ADR-RES ovarian
IGROV1 ovarian = tested on: IGROV1 ovarian
NCI-H460 lung = tested on: NCI-H460 lung
T-47D breast = tested on: T-47D breast
SN12C renal = tested on: SN12C renal
786-0 renal = tested on: 786-0 renal
HS 578T breast = tested on: HS 578T breast
OVCAR-4 ovarian = tested on: OVCAR-4 ovarian
COLO 205 colon = tested on: COLO 205 colon
HOP-62 NSCLC = tested on: HOP-62 NSCLC
SK-MEL-5 melanoma = tested on: SK-MEL-5 melanoma
SK-OV-3 ovarian = tested on: SK-OV-3 ovarian
MOLT-4 leukemia = tested on: MOLT-4 leukemia
NCI-H522 lung = tested on: NCI-H522 lung
NCI-H226 lung = tested on: NCI-H226 lung
SF-539 CNS = tested on: SF-539 CNS
SNB-19 CNS = tested on: SNB-19 CNS
OVCAR-3 ovarian = tested on: OVCAR-3 ovarian
EKVX NSCLC = tested on: EKVX NSCLC
BT-549 breast = tested on: BT-549 breast
HCT-116 colon = tested on: HCT-116 colon
U251 CNS = tested on: U251 CNS
HOP-92 NSCLC = tested on: HOP-92 NSCLC
RPMI-8226 leukemia = tested on: RPMI-8226 leukemia

## CC(C)(C)CN1[C@@H]2CCCC[C@H]2N(CC(C)(C)C)P1(=O)Cc1ccccc1
A549 NSCLC
  TGI: 24.1 µM
DU-145 prostate
  TGI: 30 µM
MDA-N
  TGI: 28.4 µM
CCRF-CEM leukemia
  TGI: 31.3 µM
SR leukemia
  TGI: 29.7 µM
SF-295 CNS
  TGI: 23.1 µM
ACHN renal
  TGI: 28.5 µM
HCT-15 colon
  TGI: 25 µM
LOX IMVI melanoma
  TGI: 29.6 µM
HCC-2998 colon
  TGI: 21.2 µM
UACC-257 melanoma
  TGI: 25.6 µM
HT29 colon
  TGI: 21.7 µM
SNB-75 CNS
  TGI: 24.1 µM
SW-620 colon
  TGI: 30.7 µM
RXF 393 renal
  TGI: 24.1 µM
OVCAR-8 ovarian
  TGI: 27.7 µM
HL-60(TB) leukemia
  TGI: 26.4 µM
SK-MEL-2 melanoma
  TGI: 29.9 µM
UO-31 renal
  TGI: 26.1 µM
MDA-MB-435
  TGI: 32.7 µM
SK-MEL-28 melanoma
  TGI: 31.7 µM
MCF7 breast
  TGI: 26.2 µM
NCI-H23 lung
  TGI: 26.2 µM
M14 melanoma
  TGI: 26.3 µM
OVCAR-5 ovarian
  TGI: 25.4 µM
CAKI-1 renal
  TGI: 27.3 µM
PC-3 prostate
  TGI: 19.4 µM
MDA-MB-231 breast
  TGI: 24.9 µM
SF-268 CNS
  TGI: 28.7 µM
K-562 leukemia
  TGI: 28.2 µM
MALME-3M melanoma
  TGI: 26.3 µM
KM12 colon
  TGI: 34.3 µM
TK-10 renal
  TGI: 25 µM
UACC-62 melanoma
  TGI: 22.5 µM
NCI/ADR-RES ovarian
  TGI: 27.1 µM
IGROV1 ovarian
  TGI: 23.3 µM
NCI-H460 lung
  TGI: 28.1 µM
T-47D breast
  TGI: 26.6 µM
SN12C renal
  TGI: 30.1 µM
786-0 renal
  TGI: 29.9 µM
HS 578T breast
  TGI: 31 µM
OVCAR-4 ovarian
  TGI: 24.9 µM
COLO 205 colon
  TGI: 22.2 µM
HOP-62 NSCLC
  TGI: 31.3 µM
SK-MEL-5 melanoma
  TGI: 24.8 µM
SK-OV-3 ovarian
  TGI: 29.2 µM
MOLT-4 leukemia
  TGI: 27.5 µM
NCI-H522 lung
  TGI: 20.6 µM
NCI-H226 lung
  TGI: 29.7 µM
SF-539 CNS
  TGI: 31.6 µM
SNB-19 CNS
  TGI: 28.6 µM
OVCAR-3 ovarian
  TGI: 23.5 µM
EKVX NSCLC
  TGI: 27.4 µM
BT-549 breast
  TGI: 31.2 µM
HCT-116 colon
  TGI: 22.6 µM
U251 CNS
  TGI: 26.5 µM

## O=S(=O)(/C=C/C=C/S(=O)(=O)c1ccccc1)c1ccccc1
A549 NSCLC
  GI50: 3.97 µM
  TGI: 15.2 µM
DU-145 prostate
  TGI: 27.7 µM
MDA-N
  GI50: 1.4 µM
  TGI: 2.88 µM and 7.28 µM
CCRF-CEM leukemia
  TGI: 0.691 µM and 0.424 µM
SR leukemia
  TGI: 2.29 µM and 0.934 µM
SF-295 CNS
  TGI: 22.2 µM
ACHN renal
  TGI: 2.06 µM and 2.05 µM
HCT-15 colon
  GI50: 0.189 µM
  TGI: 2.7 µM and 0.795 µM
LOX IMVI melanoma
  GI50: 1.42 µM
  TGI: 2.42 µM and 3.33 µM
HCC-2998 colon
  TGI: 25.1 µM
HOP-92 NSCLC
  TGI: 2.77 µM and 3.35 µM
UACC-257 melanoma
  GI50: 2 µM
  TGI: 1.9 µM and 4.82 µM
HT29 colon
  GI50: 1.4 µM
  TGI: 2.69 µM and 2.85 µM
SNB-75 CNS
  GI50: 13.9 µM
  TGI: 26.8 µM
SW-620 colon
  GI50: 0.316 µM
  TGI: 0.433 µM and 2.26 µM
RXF 393 renal
  TGI: 0.809 µM and 1.45 µM
OVCAR-8 ovarian
  GI50: 2.61 µM
  TGI: 2.12 µM and 5.95 µM
HL-60(TB) leukemia
  GI50: 0.188 µM
  TGI: 2.04 µM and 0.518 µM
SK-MEL-2 melanoma
  GI50: 1.4 µM
  TGI: 5.68 µM and 3.47 µM
UO-31 renal
  TGI: 2.92 µM and 3.32 µM
MDA-MB-435
  GI50: 1.04 µM
  TGI: 4.21 µM and 4.19 µM
SK-MEL-28 melanoma
  GI50: 2.49 µM
  TGI: 1.96 µM and 5.79 µM
MCF7 breast
  GI50: 0.525 µM
  TGI: 3.81 µM and 2.3 µM
NCI-H23 lung
  GI50: 1.06 µM
  TGI: 3.14 µM and 2.62 µM
M14 melanoma
  GI50: 0.801 µM
  TGI: 1.12 µM and 2.06 µM
OVCAR-5 ovarian
  GI50: 1.9 µM
  TGI: 5.28 µM
CAKI-1 renal
  GI50: 1.04 µM
  TGI: 2.54 µM and 2.25 µM
PC-3 prostate
  GI50: 1.9 µM
  TGI: 7.38 µM and 3.98 µM
MDA-MB-231 breast
  GI50: 1.87 µM
  TGI: 3.37 µM and 3.73 µM
SF-268 CNS
  GI50: 2.51 µM
  TGI: 8.06 µM and 5.4 µM
K-562 leukemia
  GI50: 0.179 µM
  TGI: 1.26 µM and 0.516 µM
MALME-3M melanoma
  GI50: 1.54 µM
  TGI: 2.8 µM and 3.01 µM
KM12 colon
  GI50: 11.1 µM
  TGI: 4.25 µM and 23.5 µM
TK-10 renal
  GI50: 1.35 µM
  TGI: 2.95 µM and 2.69 µM
UACC-62 melanoma
  GI50: 0.352 µM
  TGI: 2.43 µM and 1.88 µM
NCI/ADR-RES ovarian
  GI50: 2.16 µM
  TGI: 3.89 µM and 4.68 µM
IGROV1 ovarian
  GI50: 1.39 µM
  TGI: 3.57 µM
NCI-H460 lung
  GI50: 4.01 µM
  TGI: 16.9 µM
T-47D breast
  TGI: 2.69 µM
SN12C renal
  TGI: 4.16 µM
786-0 renal
  GI50: 0.956 µM
  TGI: 1.1 µM and 2.22 µM
HS 578T breast
  GI50: 2.93 µM
  TGI: 8.24 µM and 8.07 µM
OVCAR-4 ovarian
  TGI: 3.28 µM and 3.18 µM
COLO 205 colon
  GI50: 1.02 µM
  TGI: 2.77 µM and 2.71 µM
HOP-62 NSCLC
  GI50: 8.81 µM
  TGI: 20.9 µM
SK-MEL-5 melanoma
  GI50: 1.49 µM
  TGI: 2.68 µM and 2.98 µM
SK-OV-3 ovarian
  TGI: 19.9 µM
MOLT-4 leukemia
  TGI: 1.85 µM
RPMI-8226 leukemia
  TGI: 1.66 µM
NCI-H522 lung
  GI50: 0.196 µM
  TGI: 0.728 µM and 0.601 µM
NCI-H226 lung
  GI50: 1.24 µM
  TGI: 4.85 µM
SF-539 CNS
  GI50: 2.14 µM
  TGI: 4.43 µM
SNB-19 CNS
  TGI: 31.2 µM
OVCAR-3 ovarian
  GI50: 1.46 µM
  TGI: 1.82 µM and 2.9 µM
EKVX NSCLC
  TGI: 3.53 µM
BT-549 breast
  TGI: 3.15 µM
HCT-116 colon
  GI50: 0.606 µM
  TGI: 2.8 µM and 1.95 µM
U251 CNS
  GI50: 2.7 µM
  TGI: 11 µM
